This is an account of results in patent US6423745B1, “Pyrethroid compound and composition for controlling pest containing the same as an active ingredient” (Sumitomo Chemical Co., Ltd., priority 1998, dated 2002).

Where only a bound is given, the exact number is not on record here.

Series [1] has as its system American cockroach (Periplaneta americana). The series is described as follows: Insecticidal activity against American cockroach (topical application). The class given is in vivo. Particulars: 72 h, read-out: Insecticidal activity against American cockroach (LD50). On the procedure: Insecticidal Activity Against American Cockroach (Periplaneta americana) and Toxicity to Rat Insecticidal Activity Against American Cockroach
Each of the present compound and reference compound A were diluted with acetone to prepare dilutions of prescribed concentrations. Each dilution was applied on the sterna of female adult American cockroaches with a micro-applicator in a volume of 1.0 μl per insect. Then, the insects were given water and diet. After 72 hours, the dead and alive were counted. From the mortality, LD50 (mg/kg) value was determined.

For series [2], the system named is common mosquito (Culex pipiens pallens). The series is described as follows: Effect of a mosquito coil on common mosquito (knock-down). The class given is in vivo. On the set-up: key: Excellent: All the insects were knocked down (the total in the two replications).; Good: 1 to 3 insects were not knocked down (ditto).; Mediocre: 4 to 6 insects were not knocked down (ditto).; Bad: 7 or more insects were not knocked down (ditto). The conditions noted are these: 0.3 g coil burnt 30 seconds in 0.34 m^3 glass chamber, female adults counted after fifteen minutes. The text has this:
Effect of a mosquito coil on common mosquito (Culex pipiens pallens)
A base material for mosquito coil (obtained by stirring a 4:3:3 mixture of Tabu powder, Pyrethrum marc and wood powder, adding water thereto, thoroughly kneading the resulting mixture, and molding and drying the kneaded mixture) was uniformly impregnated with a solution of the present compound in acetone so that the material contains a predetermined amount of the compound. The resultant base material was air-dried to obtain a mosquito coil.
Ten female adult common mosquitoes were released in a glass chamber (70 cm cube, capacity: 0.34 m^3). 0.3 Gram of a mosquito coil containing the present compound prepared according to the procedure described above was set on a holder in the center of bottom of the chamber, ignited at one end thereof, and taken out of the chamber after 30 seconds of combustion. The knocked-down common mosquitoes were counted in fifteen minutes after the setting of the coil.
(§1) The same test procedure was repeated for (S)-2-methyl-4-oxo-3-(2-propynyl)-cyclopent-2-enyl (1RS)-cis-3-(2,2-dichlorovinyl)-2,2-dimethylcyclopropanecarboxylate (hereinafter referred to as reference compound A).
In Table 1, the knocking-down activity is indicated according to the following criterion: […]

A further series is described as follows: Toxicity to rat. Particulars: in vivo, male rats, dilution in corn oil, 10 ml/kg, mortality after 7 days. The procedure: Each of the present compound and reference compound A was diluted with corn oil to predetermined concentrations. Each of the dilutions thus prepared was administered to male rats in an amount of 10 ml/kg. The rats were given water and diet. After 7 days, the dead and alive were counted for mortality. From the mortality, LD50 (mg/kg) value was determined.

In series [3] the test system is common mosquito (Culex pipiens pallens). The series is described as follows: Effect of spraying of an oil formulation on common mosquito (knock-down). The class given is in vivo. Particulars: 0.7 ml sprayed in 0.34 m^3 glass chamber, female adults counted after two minutes.
Description: Effect of spraying of an oil formulation on common mosquito (Culex pipiens pallens)
Ten female adult common mosquitoes were released in a glass chamber (70 cm cube, capacity: 0.34 m^3). 0.7 Milliliter of an oil formulation containing a predetermined concentration (shown in Table 2) of the present compound prepared according to Formulation Example 7 was sprayed into the chamber through a small side window of the chamber with a spray gun. The knocked-down common mosquitoes were counted in two minutes after the spraying.
as §1
In Table 2, the knocking-down activity is indicated according to the following criterion: […]

Series [4] is described as follows: Calculation of safety factor (rat LD50 / American cockroach LD50). The conditions noted are these: [Toxicity to rat (LD50 value)]/[Insecticidal activity against American cockroach (LD50 value)]. The procedure: Calculation of Safety Factor
The safety factor was calculated from the insecticidal activity against American cockroach and the toxicity to rat according to the following equation.
Safety factor=[Toxicity to rat (LD50 value)]/[Insecticidal activity against American cockroach (LD50 value)]

As for `C#CCC1=C(C)[C@@H](OC(=O)[C@@H]2[C@H](C=C(Cl)Cl)C2(C)C)CC1=O` (racemic) [A, (S)-2-methyl-4-oxo-3-(2-propynyl)-cyclopent-2-enyl (1RS)-cis-3-(2,2-dichlorovinyl)-2,2-dimethylcyclopropanecarboxylate], in series [1], the LD50 came to 4.4 mg/kg. In addition, the Knocking-down activity entry in series [2] (concentration 0.5 % W/W), in series [2] (concentration 1.0 % W/W), in series [3] (concentration 0.025 % W/W) and in series [3] (concentration 0.05 % W/W) was “Bad (7 or more insects were not knocked down (ditto).)” throughout. Besides, the LD50 at 7 days in “Toxicity to rat” was less than 100 mg/kg. The Safety factor in series [4] is less than 23.
Consider `C#CCC1=C(C)[C@@H](OC(=O)[C@@H]2[C@@H](C=C(Cl)Cl)C2(C)C)CC1=O` [Present compound, (S)-2-methyl-4-oxo-3-(2-propynyl)-cyclopent-2-enyl (1R)-trans-3-(2,2-dichlorovinyl)-2,2-dimethylcyclopropanecarboxylate], for which the LD50 in series [1] was determined as 0.72 mg/kg. In addition, the Knocking-down activity entry in series [2] (concentration 0.5 % W/W) was “Excellent”; in series [3] (concentration 0.025 % W/W), “Good (3 or less insects were not knocked down (the total in the two replications).)”. Further, in the series “Toxicity to rat”, the LD50 at 7 days is greater than 300 mg/kg. The Safety factor in series [4] was greater than 420.

For orientation: LD50 means the dose at which mortality reaches 50%.
